How the values were obtained:
μ opioid receptor [1] = target: T1, μ opioid receptor (Homo sapiens, UniProt P35372); test: μ opioid receptor agonism, G protein signaling pathway; type: cell-based; conditions: for Biased Agonism Selectivity Coefficient k: G protein pathway relative to β arrestin (ratio of the two EC50)
μ opioid receptor [2] = target: T1, μ opioid receptor; test: μ opioid receptor agonism, β arrestin pathway; type: cell-based
[3] = μ opioid receptor, G protein pathway, read-out: EC50 (G protein)
[4] = μ opioid receptor, β arrestin pathway, read-out: EC50 (β arrestin)

T1 sequence (P35372 whole entry, species assumed): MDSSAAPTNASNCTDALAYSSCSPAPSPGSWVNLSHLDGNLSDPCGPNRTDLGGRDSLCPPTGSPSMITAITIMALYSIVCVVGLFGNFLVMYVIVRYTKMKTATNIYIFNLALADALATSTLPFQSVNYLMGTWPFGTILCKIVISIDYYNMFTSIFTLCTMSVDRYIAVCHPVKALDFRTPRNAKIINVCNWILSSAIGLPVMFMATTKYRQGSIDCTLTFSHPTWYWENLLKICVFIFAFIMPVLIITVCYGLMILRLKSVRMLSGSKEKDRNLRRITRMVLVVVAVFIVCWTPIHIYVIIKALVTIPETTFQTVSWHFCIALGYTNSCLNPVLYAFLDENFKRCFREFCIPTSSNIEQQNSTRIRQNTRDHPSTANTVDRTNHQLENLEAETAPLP

SMILES | Biased Agonism Selectivity Coefficient k (μ opioid receptor [1]) | EC50 (μ opioid receptor [1]; [3]) [nM] | EC50 (μ opioid receptor [2]; [4]) [nM] | EC50 (μ opioid receptor [1]) [nM] | EC50 (μ opioid receptor [2]) [nM]
c1ccc(-n2cc(CNCc3ccc4c(c3)CCO4)c(-c3ccncc3)n2)cc1 [Compound 13] | 940.9 | 6.26 | 5890 | – | –
c1ccc(-n2cc(CNCCn3cccn3)c(-c3ccncc3)n2)cc1 [Compound 15] | – | – | – | 3100 | –
CC(C)Oc1ccc(CNCc2cn(-c3ccccc3)nc2-c2ccncc2)cc1 [Compound 14] | – | – | – | 521 | –
CCCNC(=O)c1cccc(CNCc2cn(-c3ccccc3)nc2-c2ccccc2)c1 [Compound 2] | 34.8 | – | – | 146 | 5060
Cc1cc(C)n2c(CNCc3cn(-c4ccccc4)nc3-c3ccccc3)cnc2n1 [Compound 6] | – | – | – | 2190 | –
CCCOC(=O)c1cccc(CNCc2cn(-c3ccccc3)nc2-c2ccncc2)c1 [Compound 9] | 13.6 | – | – | 22200 | 1630
CCCNC(=O)c1cccc(CNCc2cn(-c3ccccc3)nc2-c2ccncc2)c1 [Compound 1] | 26.7 | – | – | 704 | 18800
CCCOC(=O)c1cccc(CNCc2cn(-c3ccccc3)nc2-c2ccccc2)c1 [Compound 8] | 11.3 | – | – | 6450 | 569
c1ccc(-n2cc(CNCc3ccc4c(c3)OCO4)c(-c3ccncc3)n2)cc1 [Compound 12] | 2228.6 | 10.5 | 23400 | – | –
c1ccc(-n2cc(CNCc3ccc4occc4c3)c(-c3ccncc3)n2)cc1 [Compound 3] | 157.9 | 1.24 | 195 | – | –
CCOC(=O)c1cccc(CNCc2cn(-c3ccccc3)nc2-c2ccncc2)c1 [Compound 11] | 9.3 | – | – | 7220 | 67500
CCOC(=O)c1cccc(CNCc2cn(-c3ccccc3)nc2-c2ccccc2)c1 [Compound 10] | 7.6 | – | – | 13900 | 1830
c1ccc(-c2nn(-c3ccccc3)cc2CNCc2ccc3occc3c2)cc1 [Compound 4] | 32.8 | – | – | 139 | 4570
